In PubChem BioAssay (NCI):
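Growth conditions: 96-well plates. Treatment: test compound, 48 hours, 5 concentrations. Analysis: linear interpolation between bracketing concentrations; unreached endpoints set to highest concentration. TGI: total growth inhibition.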

Experiments:
Assay in all cases: DTP human tumour cell line panel, 48 h
UACC-62 melanoma = tested on: UACC-62 melanoma
SK-OV-3 ovarian = tested on: SK-OV-3 ovarian
HCT-116 colon = tested on: HCT-116 colon
KM12 colon = tested on: KM12 colon
PC-3 prostate = tested on: PC-3 prostate
CAKI-1 renal = tested on: CAKI-1 renal
SK-MEL-28 melanoma = tested on: SK-MEL-28 melanoma
TK-10 renal = tested on: TK-10 renal
SNB-19 CNS = tested on: SNB-19 CNS
OVCAR-8 ovarian = tested on: OVCAR-8 ovarian
NCI-H23 lung = tested on: NCI-H23 lung
T-47D breast = tested on: T-47D breast
IGROV1 ovarian = tested on: IGROV1 ovarian

| Structure (SMILES) | TGI (UACC-62 melanoma) | TGI (SK-OV-3 ovarian) | TGI (HCT-116 colon) | TGI (KM12 colon) | TGI (PC-3 prostate) | TGI (CAKI-1 renal) | TGI (SK-MEL-28 melanoma) | TGI (TK-10 renal) | TGI (SNB-19 CNS) | TGI (OVCAR-8 ovarian) | TGI (NCI-H23 lung) | TGI (T-47D breast) | TGI (IGROV1 ovarian) |
| --- | --- | --- | --- | --- | --- | --- | --- | --- | --- | --- | --- | --- | --- |
| O=S1(=O)N=C(SCc2ccccc2)N(c2ccccc2)c2ccncc21 | > 100 µM | > 100 µM | > 100 µM | > 100 µM | > 100 µM | > 100 µM | > 100 µM | > 100 µM | > 100 µM | > 100 µM | > 100 µM | > 100 µM | – |
| COc1ccc2[nH]cc(CCNC(=O)[C@H](Cc3ccccc3)NC(=O)[C@@H](NCC(F)(F)F)C(C)C)c2c1 | 36.2 µM | 33.3 µM | 32 µM | 49.7 µM | 40.9 µM | – | 31.8 µM | 57.4 µM | 84.8 µM | 54.4 µM | 64.6 µM | – | 51.3 µM |
| O=C1NC2ON=C(c3ccccc3)C2C2ON=C(c3ccccc3)N12 (stereo not given) | > 100 µM | > 100 µM | – | > 100 µM | > 100 µM | > 100 µM | – | > 100 µM | > 100 µM | > 100 µM | > 100 µM | – | > 100 µM |
| COc1cc2c(oc(=O)c3c4oc([Si](C)(C)C)cc4cc(OC)c23)c2cccc(OCc3ccccc3)c12 | 37.6 µM | > 73.2 µM | > 100 µM | > 100 µM | – | 41.2 µM | > 85.9 µM | > 66.8 µM | 64.1 µM | > 71.5 µM | 35.6 µM | – | > 100 µM |
| Clc1ccc(NCc2nnc(CCCCCCCCc3nnc(CNc4ccc(Cl)cc4)o3)o2)cc1 | > 100 µM | > 100 µM | > 100 µM | > 100 µM | > 100 µM | > 100 µM | – | > 100 µM | > 100 µM | > 100 µM | > 100 µM | > 100 µM | – |
| CN(C)Nc1cc(=O)[nH]c(=O)[nH]1 | – | – | > 100 µM | > 100 µM | > 100 µM | – | > 100 µM | > 100 µM | > 100 µM | > 100 µM | – | – | > 100 µM |
| COc1ccc2c3c1O[C@]1(C)C34CCN(C)C(C2)C42C=C[C@@]1(OC)c1c(O)ccc(O)c12 | – | > 100 µM | > 100 µM | > 100 µM | – | – | > 100 µM | > 100 µM | > 100 µM | > 100 µM | > 100 µM | – | > 100 µM |
| C[N+](C)(C)CC(=O)N/N=C/c1oc(-c2c(O)ccc3ccccc23)c(-c2c(O)ccc3ccccc23)c1[N+](=O)[O-] | 18.6 µM | 36.3 µM | 24.7 µM | 38.9 µM | – | 75.5 µM | 49.2 µM | 87.1 µM | > 100 µM | 78.6 µM | 37.2 µM | – | 44.2 µM |
| CS(=O)(=O)c1nc(-c2cc3c(c(S(C)(=O)=O)n2)CCC3)cc2c1CCCCC2 | 80 µM | 34.9 µM | > 100 µM | > 100 µM | > 100 µM | > 100 µM | > 100 µM | > 100 µM | > 100 µM | > 100 µM | > 100 µM | – | 63.7 µM |
| O=C1/C(=C/c2cccc(Br)c2)CCc2ccccc21 | 22.4 µM | 47.2 µM | 19.9 µM | 20.7 µM | 27.7 µM | 30.3 µM | 33.8 µM | 31 µM | 27.9 µM | 36.1 µM | 32.6 µM | – | 24.7 µM |
| C/C(=N\NS(=O)(=O)c1ccc(C)cc1)C(CN1CCCCC1)C(c1ccccc1)c1c(O)c2ccccc2oc1=O (stereo not given) | > 100 µM | > 100 µM | > 100 µM | > 100 µM | – | > 100 µM | – | > 100 µM | > 100 µM | > 100 µM | > 100 µM | – | > 100 µM |
| COC(=O)C(=O)C(C(=O)C(=O)Nc1ccc(F)cc1)c1nc2ccc([N+](=O)[O-])cc2[nH]c1=O (stereo not given) | – | > 100 µM | > 100 µM | > 100 µM | – | > 100 µM | > 100 µM | > 100 µM | > 100 µM | > 100 µM | > 100 µM | – | > 100 µM |
| Cc1ccc2c(c1)[nH]c(=S)n2/C=C1\C(=O)Oc2ccccc2C1=O | > 100 µM | – | > 100 µM | > 100 µM | > 100 µM | > 100 µM | > 100 µM | > 100 µM | > 100 µM | > 100 µM | > 100 µM | > 100 µM | > 100 µM |
| CNc1ncnc2c1ncn2C1C=CC(COS(N)(=O)=O)C1 (stereo not given) | > 100 µM | > 100 µM | > 100 µM | > 100 µM | > 100 µM | > 100 µM | > 100 µM | – | > 100 µM | > 100 µM | > 100 µM | > 100 µM | > 100 µM |
| CCc1c2c([nH]c(=S)c1C#N)CCC2 | > 100 µM | > 100 µM | > 100 µM | > 100 µM | > 100 µM | > 100 µM | > 100 µM | > 100 µM | > 100 µM | > 100 µM | > 100 µM | – | > 100 µM |
| O=C(CSc1nnc(-c2ccc(N=Cc3ccc(Cl)cc3)cc2)o1)Nc1ccccc1[N+](=O)[O-] | > 100 µM | > 100 µM | > 100 µM | > 100 µM | – | – | > 100 µM | > 100 µM | > 100 µM | > 100 µM | > 100 µM | – | – |
| O=C1CCCCC/C1=C\c1cccc(Cl)c1 | > 100 µM | > 100 µM | > 100 µM | > 100 µM | 80.4 µM | > 100 µM | > 100 µM | – | > 100 µM | – | > 100 µM | > 100 µM | > 100 µM |
| C1=NCCN2CCN(CCN=Cc3ccc(cc3)OCc3cccc(n3)COc3ccc1cc3)CC2 | > 50 µM | > 50 µM | > 50 µM | > 50 µM | > 50 µM | – | > 50 µM | > 50 µM | > 50 µM | > 50 µM | > 50 µM | – | > 50 µM |
| COc1cc(O)c2c(=O)cc(-c3ccc(O)cc3O)oc2c1CC=C(C)C | 39.3 µM | – | 32.4 µM | 21.5 µM | 27.1 µM | 32.5 µM | > 100 µM | 74.3 µM | 44.5 µM | 35.3 µM | 32.5 µM | – | 39.6 µM |
